Reference: the NIST ThermoML archive (doi:10.1021/je700521t)

Assay: xn = mol fraction of the nth substance listed
Conditions: 101 kPa, Liquid; for mass density: Vibrating tube method

CCCCn1cc[n+](C)c1.[O-][Cl+3]([O-])([O-])[O-] [1-butyl-3-methylimidazolium perchlorate] + CCO
Conditions | mass density [kg/m3] | viscosity [mPa·s]
283.15 K, x2 = 0.1 | 1249.3 | 255.52
283.15 K, x2 = 0.165 | 1239.4 | 181.83
283.15 K, x2 = 0.291 | 1216.6 | 87.42
283.15 K, x2 = 0.401 | 1192 | 50.26
283.15 K, x2 = 0.479 | 1173.6 | 35.48
288.15 K, x2 = 0.1 | 1245.7 | 188.52
288.15 K, x2 = 0.165 | 1235.7 | 136.86
288.15 K, x2 = 0.291 | 1212.8 | 68.04
288.15 K, x2 = 0.401 | 1188.3 | 40.89
288.15 K, x2 = 0.479 | 1169.8 | 29.17
293.15 K, x2 = 0.1 | 1242.1 | 142.2
293.15 K, x2 = 0.165 | 1231.9 | 105.92
293.15 K, x2 = 0.291 | 1208.9 | 54.9
293.15 K, x2 = 0.401 | 1184.6 | 33.49
293.15 K, x2 = 0.479 | 1166.1 | 24.41
293.15 K, x2 = 0.592 | 1129.6 | 12.98
293.15 K, x2 = 0.637 | 1110.4 | 11.66
293.15 K, x2 = 0.79 | 1022.6 | 5.38
293.15 K, x2 = 0.86 | 960.5 | 4.96
298.15 K, x2 = 0.1 | 1238.6 | 109.99
298.15 K, x2 = 0.165 | 1228 | 83.35
298.15 K, x2 = 0.291 | 1205 | 44.84
298.15 K, x2 = 0.401 | 1180.9 | 27.92
298.15 K, x2 = 0.479 | 1162.2 | 20.67
298.15 K, x2 = 0.592 | 1125.8 | 11.13
298.15 K, x2 = 0.637 | 1104.6 | 10.06
298.15 K, x2 = 0.79 | 1018.7 | 4.62
298.15 K, x2 = 0.86 | 956.7 | 4.22
303.15 K, x2 = 0.1 | 1235.1 | 86.43
303.15 K, x2 = 0.165 | 1224.1 | 66.48
303.15 K, x2 = 0.291 | 1199.8 | 36.75
303.15 K, x2 = 0.401 | 1177.2 | 23.38
303.15 K, x2 = 0.479 | 1158.3 | 17.56
303.15 K, x2 = 0.592 | 1122 | 9.6
303.15 K, x2 = 0.637 | 1102.7 | 8.71
303.15 K, x2 = 0.79 | 1014.8 | 4.03
303.15 K, x2 = 0.86 | 952.7 | 3.59
308.15 K, x2 = 0.1 | 1231.7 | 69.74
308.15 K, x2 = 0.165 | 1220.3 | 54.25
308.15 K, x2 = 0.291 | 1195.8 | 30.63
308.15 K, x2 = 0.401 | 1173.6 | 20.06
308.15 K, x2 = 0.592 | 1117.5 | 8.48
308.15 K, x2 = 0.637 | 1100.6 | 7.52
308.15 K, x2 = 0.79 | 1011 | 3.74
308.15 K, x2 = 0.86 | 948.7 | 3.16
313.15 K, x2 = 0.1 | 1228.2 | 56.98
313.15 K, x2 = 0.165 | 1216.2 | 44.76
313.15 K, x2 = 0.291 | 1193.1 | 26.13
313.15 K, x2 = 0.401 | 1169.9 | 17.38
313.15 K, x2 = 0.592 | 1114.8 | 7.43
313.15 K, x2 = 0.637 | 1096.7 | 6.66
313.15 K, x2 = 0.79 | 1007 | 3.46
313.15 K, x2 = 0.86 | 944.6 | 2.8
318.15 K, x2 = 0.1 | 1224.7 | 46.98
318.15 K, x2 = 0.165 | 1211.2 | 37.2
318.15 K, x2 = 0.291 | 1188.9 | 22.14
323.15 K, x2 = 0.1 | 1221.3 | 39.45
323.15 K, x2 = 0.165 | 1207.2 | 31.56
323.15 K, x2 = 0.291 | 1184.7 | 19.51
328.15 K, x2 = 0.1 | 1217.8 | 33.69
328.15 K, x2 = 0.165 | 1201 | 27.02
328.15 K, x2 = 0.291 | 1180.1 | 17.16
333.15 K, x2 = 0.1 | 1214.4 | 28.86
333.15 K, x2 = 0.165 | 1198.7 | 23.5
333.15 K, x2 = 0.291 | 1175.2 | 15.43
338.15 K, x2 = 0.1 | 1211 | 24.94
338.15 K, x2 = 0.165 | 1195.4 | 20.45
338.15 K, x2 = 0.291 | 1169.3 | 13.79
343.15 K, x2 = 0.1 | 1207.5 | 21.69
343.15 K, x2 = 0.165 | 1190.3 | 18.12
343.15 K, x2 = 0.291 | 1159.4 | –
